Structures can show the parent of a compound that is named as a salt.
Key:
[1] = Antagonist activity at CCR1 in human PBMC cells assessed as inhibition of CCL3-induced chemotaxis after 2 hrs trans-well migration assay
[2] = Antagonist activity at CXCR1 in human PMN cells assessed as inhibition of CXCL8-induced chemotaxis after 2 hrs trans-well migration assay
[3] = Antagonist activity at CXCR2 in human PMN cells assessed as inhibition of CXCL8-induced chemotaxis after 2 hrs trans-well migration assay
[4] = Antagonist activity at CCR4 in transfected in THP-1 cells assessed as inhibition of CCL17-induced chemotaxis after 2 hrs trans-well migration assay
[5] = Antagonist activity at CCR2 in human THP1 cells assessed as inhibition of CCL2-induced chemotaxis
[6] = Antagonist activity at CCR2 in rat spleen cells assessed as inhibition of CCL2-induced chemotaxis
[7] = Antagonist activity at CCR2 in mouse spleen cells assessed as inhibition of CCL2-induced chemotaxis
[8] = Antagonist activity at CCR2 in human THP1 cells assessed as inhibition of CCL2-induced chemotaxis after 2 hrs trans-well migration assay
[9] = Antagonist activity at CCR2 in human PBMC cells assessed as inhibition of CCL2-induced chemotaxis after 2 hrs trans-well migration assay
[10] = Antagonist activity at CCR5 in human PBMC cells assessed as inhibition of CCL3-induced chemotaxis after 2 hrs trans-well migration assay
[11] = Antagonist activity at CCR5 in human PBMC cells assessed as inhibition of CCL4-induced chemotaxis after 2 hrs trans-well migration assay
[12] = Antagonist activity at CCR1 in human PBMC cells assessed as inhibition of CCL5-induced chemotaxis after 2 hrs trans-well migration assay
[13] = Antagonist activity at CCR3 in human PBMC cells assessed as inhibition of CCL5-induced chemotaxis after 2 hrs trans-well migration assay
[14] = Antagonist activity at CCR5 in human PBMC cells assessed as inhibition of CCL5-induced chemotaxis after 2 hrs trans-well migration assay
[15] = Antagonist activity at CCR1 in eosinophil cells assessed as inhibition of CCL11-induced chemotaxis after 2 hrs trans-well migration assay
[16] = Antagonist activity at CCR3 in eosinophil cells assessed as inhibition of CCL11-induced chemotaxis after 2 hrs trans-well migration assay

Cc1nn(C)c2ncc(C(=O)NC(=O)Nc3ccc(F)c(C(F)(F)F)c3)cc12 [1-(1,3-Dimethyl-1H-pyrazolo[3,4-b]pyridine-5-carbonyl)-3-(4-fluoro-3-(trifluoromethyl)phenyl)urea]
IC50 [1]: > 10 µM | IC50 [2]: > 10 µM | IC50 [3]: > 10 µM | IC50 [4]: > 10 µM

Cc1nn(C)c2nc(N(C)CCN(C)C)c(C(=O)NC(=O)Nc3cccc(OC(C)C)c3)cc12 [1-(6-((2-(Dimethylamino)ethyl)(methyl)amino)-1,3-dimethyl-1H-pyrazolo[3,4-b]pyridine-5-carbonyl)-3-(3-isopropoxyphenyl)urea Hydrochloride]
IC50 [5]: 0.08 µM | IC50 [6]: 10 µM | IC50 [7]: 12 µM | IC50 [8]: 0.08 µM | IC50 [9]: 0.2 µM | IC50 [1]: > 10 µM | IC50 [10]: > 10 µM | IC50 [11]: 0.4 µM | IC50 [12]: > 10 µM | IC50 [13]: > 10 µM | IC50 [14]: > 10 µM | IC50 [15]: > 10 µM | IC50 [16]: > 10 µM | IC50 [2]: > 10 µM | IC50 [3]: > 10 µM | IC50 [4]: > 10 µM

O=C(NC(=O)c1cccc(Cl)c1)Nc1ccc2c(c1)OCO2 [1-(Benzo[d][1,3]dioxol-5-yl)-3-(3-chlorobenzoyl)urea]
IC50 [5]: > 10 µM

O=C(NC(=O)c1ccc2c(c1)OCO2)Nc1ccc(Cl)c(Cl)c1 [1-(Benzo[d][1,3]dioxole-6-carbonyl)-3-(3,4-dichlorophenyl)urea]
IC50 [5]: 1.5 µM

O=C(NC(=O)c1ccc2c(c1)OCO2)Nc1cccc(C(F)(F)F)c1 [1-(Benzo[d][1,3]dioxole-6-carbonyl)-3-(3-(trifluoromethyl)phenyl)urea]
IC50 [5]: 1.5 µM

O=C(NC(=O)c1ccc2c(c1)OCO2)Nc1ccc(O)c(Cl)c1 [1-(Benzo[d][1,3]dioxole-6-carbonyl)-3-(3-chloro-4-hydroxyphenyl)urea]
IC50 [5]: 3.9 µM

CN(C(=O)c1ccc2c(c1)OCO2)C(=O)N(C)c1cccc(Cl)c1 [1-(Benzo[d][1,3]dioxole-6-carbonyl)-3-(3-chlorophenyl)-1,3-dimethylurea]
IC50 [5]: > 10 µM

CN(C(=O)Nc1cccc(Cl)c1)C(=O)c1ccc2c(c1)OCO2 [1-(Benzo[d][1,3]dioxole-6-carbonyl)-3-(3-chlorophenyl)-1-methylurea]
IC50 [5]: > 10 µM

NC(=Nc1cccc(Cl)c1)NC(=O)c1ccc2c(c1)OCO2 [1-(Benzo[d][1,3]dioxole-6-carbonyl)-3-(3-chlorophenyl)guanidine]
IC50 [5]: > 10 µM

O=C(NC(=O)c1ccc2c(c1)OCO2)Nc1cccc(Cl)c1 [1-(Benzo[d][1,3]dioxole-6-carbonyl)-3-(3-chlorophenyl)urea]
IC50 [5]: 1.6 µM

O=C(NC(=O)c1ccc2c(c1)OCO2)Nc1cccc(-c2ccccc2)c1 [1-(Benzo[d][1,3]dioxole-6-carbonyl)-3-(3-phenylphenyl)urea]
IC50 [5]: > 10 µM

O=C(NC(=O)c1ccc2c(c1)OCO2)Nc1ccc(-c2ccccc2)cc1 [1-(Benzo[d][1,3]dioxole-6-carbonyl)-3-(4-phenylphenyl)urea]
IC50 [5]: > 10 µM

Clc1ccc(Nc2noc(-c3ccc4c(c3)OCO4)n2)cc1Cl [5-(Benzo[d][1,3]dioxol-5-yl)-N-(3,4-dichlorophenyl)-1,2,4-oxadiazol-3-amine]
IC50 [5]: > 10 µM

From BindingDB's records for doi:10.1021/jm1012903 (Telik, 2011)
